Experimental data from ChEMBL document CHEMBL1125860 (J Med Chem, 1991).
Activity calls are given as the source filed them. No cut-off for these calls is given here.

Experiments:
[1] = target: Aldo-keto reductase family 1 member B1 (Bos taurus) (UniProt P16116); test: In vitro % decrease of aldose reductase measured in isolated partially purified bovine lens preparations at 10e-7 M concentration
Rattus norvegicus [2] = test: In vivo inhibition of galactitol accumulation in diaphragm of rat at 50 mg/kg/day; type: functional
Rattus norvegicus [3] = test: In vivo inhibition of galactitol accumulation in sciatic nerves of rat at 50 mg/kg/day; type: functional; conditions: Sciatic nerve
Rattus norvegicus [4] = test: In vivo inhibition of galactitol accumulation in diaphragm of rat at 26 mg/kg/day; type: functional
Rattus norvegicus [5] = test: In vivo inhibition of galactitol accumulation in sciatic nerves of rat at 26 mg/kg/day; Not significant; type: functional, organism-based; conditions: Sciatic nerve
Rattus norvegicus [6] = test: In vivo inhibition of galactitol accumulation in sciatic nerves of rat at 25 mg/kg/day; type: functional; conditions: Sciatic nerve
Rattus norvegicus [7] = test: In vivo inhibition of galactitol accumulation in sciatic nerves at 5 mg/kg/day; Not significant; type: functional, organism-based; conditions: Sciatic nerve
Rattus norvegicus [8] = test: In vivo inhibition of galactitol accumulation in diaphragm of rat at 25 mg/kg/day; type: functional
Rattus norvegicus [9] = test: In vivo inhibition of galactitol accumulation in sciatic nerves of rat at 26 mg/kg/day; type: functional; conditions: Sciatic nerve
[10] = target: Aldo-keto reductase family 1 member B1 (Bos taurus) (UniProt P16116); test: In vitro % decrease of aldose reductase was measured in isolated partially purified bovine lens preparations at 10e-7 M concentration; Not active
Rattus norvegicus [11] = test: In vivo inhibition of galactitol accumulation in diaphragm of rat at 48 mg/kg/day; Not significant; type: functional, organism-based
Rattus norvegicus [12] = test: In vivo inhibition of galactitol accumulation in sciatic nerves of rat at 48 mg/kg/day; Not significant; type: functional, organism-based; conditions: Sciatic nerve
Rattus norvegicus [13] = test: In vivo inhibition of galactitol accumulation in diaphragm of rat at 25 mg/kg/day; […]; type: functional, organism-based
Rattus norvegicus [14] = test: In vivo inhibition of galactitol accumulation in sciatic nerves of rat at 25 mg/kg/day; Not significant; type: functional, organism-based; conditions: Sciatic nerve
Rattus norvegicus [15] = test: In vivo inhibition of galactitol accumulation in diaphragm of rat at 49 mg/kg/day; type: functional
Rattus norvegicus [16] = test: In vivo inhibition of galactitol accumulation in sciatic nerves of rat at 49 mg/kg/day; type: functional; conditions: Sciatic nerve
Rattus norvegicus [17] = organism: Rattus norvegicus; test: In vitro inhibition of sorbitol accumulation was measured in rat sciatic nerves incubated in the presence of 50 mM glucose at 10e-5 M concentration; type: functional, Sciatic nerve
Rattus norvegicus [18] = organism: Rattus norvegicus; test: In vitro inhibition of sorbitol accumulation was measured in rat sciatic nerves incubated in the presence of 50 mM glucose at 10e-6 M concentration; type: functional, Sciatic nerve
Rattus norvegicus [19] = test: In vivo inhibition of galactitol accumulation in diaphragm of rat at 48 mg/kg/day; type: functional
Rattus norvegicus [20] = test: In vivo inhibition of galactitol accumulation in sciatic nerves of rat at 48 mg/kg/day; type: functional; conditions: Sciatic nerve
Rattus norvegicus [21] = test: In vivo inhibition of galactitol accumulation in sciatic nerves of rat at 10 mg/kg/day; type: functional; conditions: Sciatic nerve
Rattus norvegicus [22] = test: In vivo inhibition of galactitol accumulation in diaphragm of rat at 10 mg/kg/day; type: functional
[23] = target: Aldo-keto reductase family 1 member B1 (Bos taurus) (UniProt P16116); test: In vitro % decrease of […] reductase was measured in isolated partially purified bovine lens preparations at 10e-7 M concentration
Rattus norvegicus [24] = test: In vivo inhibition of galactitol accumulation in sciatic nerves of rat at 49 mg/kg/day; Not significant; type: functional, organism-based; conditions: Sciatic nerve
Rattus norvegicus [25] = test: In vivo inhibition of galactitol accumulation in diaphragm of rat at 50 mg/kg/day; Not significant; type: functional, organism-based
Rattus norvegicus [26] = test: In vivo inhibition of galactitol accumulation in sciatic nerves of rat at 50 mg/kg/day; Not significant; type: functional, organism-based; conditions: Sciatic nerve
Rattus norvegicus [27] = test: In vivo inhibition of galactitol accumulation in diaphragm of rat at 53 mg/kg/day; type: functional
Rattus norvegicus [28] = test: In vivo inhibition of galactitol accumulation in sciatic nerves of rat at 53 mg/kg/day; Not significant; type: functional, organism-based; conditions: Sciatic nerve
Rattus norvegicus [29] = test: In vivo inhibition of galactitol accumulation in sciatic nerves of rat at 24 mg/kg/day; Not significant; type: functional, organism-based; conditions: Sciatic nerve
Rattus norvegicus [30] = test: In vivo inhibition of galactitol accumulation in diaphragm of rat at 24 mg/kg/day; type: functional

CCCOc1ccc2c(C(F)(F)F)c(OC)ccc2c1C(=O)N(C)CC(=O)O
inhibition [1]: 46%
inhibition in vivo at 50 mg/kg/day (Rattus norvegicus [2]): 57%
inhibition in vivo at 50 mg/kg/day (Rattus norvegicus [3]): 48%

COc1ccc2c(C(=O)N(C)CC(=O)O)ccc(F)c2c1C(F)(F)F
inhibition [1]: 64%
inhibition in vivo at 26 mg/kg/day (Rattus norvegicus [4]): 15%
inhibition (Rattus norvegicus [5]): inactive

COc1ccc2c(C(=S)N(C)CC(=O)O)c(F)ccc2c1C(F)(F)F
inhibition in vivo at 25 mg/kg/day (Rattus norvegicus [6]): 92%
inhibition (Rattus norvegicus [7]): inactive
inhibition in vivo at 25 mg/kg/day (Rattus norvegicus [8]): 93%

COc1ccc2c(C(=S)N(C)CC(=O)O)c(OCC(F)(F)F)ccc2c1C(F)(F)F
inhibition [1]: 86%
inhibition in vivo at 26 mg/kg/day (Rattus norvegicus [4]): 88%
inhibition in vivo at 26 mg/kg/day (Rattus norvegicus [9]): 33%

COc1ccc2c(C(=S)N(C)CC(=O)O)cc(Br)cc2c1Br
inhibition [1]: 94%
inhibition in vivo at 26 mg/kg/day (Rattus norvegicus [4]): 86%
inhibition (Rattus norvegicus [5]): inactive

COc1ccc2c(C(=O)N(C)CC(N)=O)c(C(C)(C)C)ccc2c1C(F)(F)F
inhibition [10]: inactive
inhibition (Rattus norvegicus [11]): inactive
inhibition (Rattus norvegicus [12]): inactive

COc1ccc2c(C(=O)N(C)CC(N)=O)c(OCC(F)(F)F)ccc2c1C(F)(F)F
inhibition [10]: inactive
inhibition (Rattus norvegicus [13]): inactive
inhibition (Rattus norvegicus [14]): inactive

COc1ccc2c(C(=S)N(C)CC(=O)O)ccc(F)c2c1C(F)(F)F
inhibition [1]: 84%
inhibition in vivo at 25 mg/kg/day (Rattus norvegicus [6]): 94%
inhibition in vivo at 25 mg/kg/day (Rattus norvegicus [8]): 90%

CCOc1ccc2c(C(F)(F)F)c(OC)ccc2c1C(=O)N(C)CC(=O)O
inhibition [1]: 65%
inhibition in vivo at 49 mg/kg/day (Rattus norvegicus [15]): 57%
inhibition in vivo at 49 mg/kg/day (Rattus norvegicus [16]): 45%
Inhibition (Rattus norvegicus [17]): 55%
Inhibition (Rattus norvegicus [18]): 30%

COC(=O)N(CC(=O)O)C(=O)c1cccc2c(C(F)(F)F)c(OC)ccc12
inhibition in vivo at 48 mg/kg/day (Rattus norvegicus [19]): 54%
inhibition in vivo at 48 mg/kg/day (Rattus norvegicus [20]): 70%
inhibition in vivo at 10 mg/kg/day (Rattus norvegicus [21]): 86%
inhibition in vivo at 10 mg/kg/day (Rattus norvegicus [22]): 76%
Inhibition (Rattus norvegicus [17]): 58%

COc1ccc2c(C(=O)N(C)CC(=O)O)c(C(F)(F)F)ccc2c1C(F)(F)F
inhibition [1]: 32%
inhibition in vivo at 48 mg/kg/day (Rattus norvegicus [19]): 52%
inhibition (Rattus norvegicus [12]): inactive
Inhibition (Rattus norvegicus [17]): 65%
Inhibition (Rattus norvegicus [18]): 35%

COc1ccc2c(C(=S)N(C)CC(=O)O)c(C)ccc2c1C(F)(F)F
inhibition [23]: 70%
inhibition in vivo at 26 mg/kg/day (Rattus norvegicus [4]): 91%
inhibition (Rattus norvegicus [5]): inactive

COc1ccc2c(C(F)(F)F)c(OC)ccc2c1C(=S)N(C)CC(=O)O
inhibition [1]: 91%
inhibition in vivo at 26 mg/kg/day (Rattus norvegicus [4]): 71%
inhibition (Rattus norvegicus [5]): inactive

CCCCOc1ccc2c(C(F)(F)F)c(OC)ccc2c1C(=O)N(C)CC(=O)O
inhibition [1]: 42%
inhibition in vivo at 49 mg/kg/day (Rattus norvegicus [15]): 55%
inhibition (Rattus norvegicus [24]): inactive

COc1ccc2c(C(=S)N(C)CC(=O)O)cc(F)cc2c1Br
inhibition [1]: 86%
inhibition in vivo at 26 mg/kg/day (Rattus norvegicus [4]): 86%
inhibition (Rattus norvegicus [5]): inactive

COc1ccc2c(C(=O)N(C)CC(=O)O)c(Cc3ccccc3)ccc2c1C(F)(F)F
inhibition [1]: 52%
inhibition (Rattus norvegicus [25]): inactive
inhibition (Rattus norvegicus [26]): inactive

COc1ccc2c(C(=S)N(C)CC(=O)O)cc(-c3ccccc3)cc2c1C(F)(F)F
inhibition [1]: 93%
inhibition in vivo at 53 mg/kg/day (Rattus norvegicus [27]): 82%
inhibition (Rattus norvegicus [28]): inactive
Inhibition (Rattus norvegicus [17]): 87%
Inhibition (Rattus norvegicus [18]): 36%

COc1ccc2c(C(=S)N(C)CC(=O)O)c(Cl)ccc2c1C(F)(F)F
inhibition [1]: 81%
inhibition (Rattus norvegicus [29]): inactive
inhibition in vivo at 24 mg/kg/day (Rattus norvegicus [30]): 90%
